Values belong to the compound of their own block, whether it stands above or below them.
Tests used:
hTRPV1 = target: T1, hTRPV1 (Homo sapiens, UniProt Q8NER1); assay: Human TRPV1 (hTRPV1) functional assay, FLIPR intracellular Ca2+, capsaicin challenge; assay type: cell-based; settings: HEK293 cells expressing hTRPV1, capsaicin 0.030 μM challenge; for IC50: derived from a variety of test concentrations, read-out: IC50 value (symbol c); for inhibition at 0.5 µM: test concentration of 0.5 μm, read-out: percent inhibition (symbol a); for inhibition at 0.2 µM: test concentration of 0.2 μm, read-out: percent inhibition (symbol b)
T1 construct: expressed in transfected cells; host or cells: HEK293
Outline: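 HEK293 cells expressing the channel, loaded with Calcium 3 dye, were exposed to compounds for 5 min before capsaicin 0.030 μM (~80% maximal). FLIPR Ca2+ read; IC50/EC50 from quadruplicate concentration-response, or percent inhibition at 0.5 μm or 0.2 μm.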

male Sprague-Dawley rats = assay: CFA-induced inflammatory pain, reversal of thermal hyperalgesia (radiant heat paw stimulator); assay type: in vivo; settings: Rattus norvegicus, po, 10 mg/kg orally, 24 h after CFA, maximal during the 300 min test, read-out: % Reversal (maximal percent reversal of hypersensitivity)
Experimental: Compounds of the present invention were tested in animal models of inflammation and inflammatory pain. To assess the ability of test compounds to reverse thermal hyperalgesia, baseline response latencies on a radiant heat (RH) paw stimulator were obtained before an intraplantar injection of 100 μL (1 μg/μL) CFA (1:1 CFA:saline) in male Sprague-Dawley rats. Only withdrawal responses that were quick hind paw movements (with or without licking of the hind paw) were recorded. Paw movements associated with locomotion or a shifting of weight were not considered a withdrawal response. The stimulus intensity that produced 10-15 sec baseline withdrawal latencies was used and a maximum cutoff of 20 sec was imposed. Hypersensitivity was evaluated 24 h after CFA.
Following the post-inflammogen latency assessment, rats were orally dosed (2.5 mL/kg) with test compound (10 mg/kg) or vehicle (20% hydroxypropyl beta cyclodextran). To determine the time of peak effect, latencies were redetermined 30, 60, 100, 180 and 300 min after compound administration.
Data are presented as the maximal percent reversal of hypersensitivity obtained during the 300 min test, which was calculated for each animal according to the formula: % reversal=100%×(treatment response−post-inflammogen response)/(pre-inflammogen response−post-inflammogen response)

T1 sequence (Q8NER1 whole entry): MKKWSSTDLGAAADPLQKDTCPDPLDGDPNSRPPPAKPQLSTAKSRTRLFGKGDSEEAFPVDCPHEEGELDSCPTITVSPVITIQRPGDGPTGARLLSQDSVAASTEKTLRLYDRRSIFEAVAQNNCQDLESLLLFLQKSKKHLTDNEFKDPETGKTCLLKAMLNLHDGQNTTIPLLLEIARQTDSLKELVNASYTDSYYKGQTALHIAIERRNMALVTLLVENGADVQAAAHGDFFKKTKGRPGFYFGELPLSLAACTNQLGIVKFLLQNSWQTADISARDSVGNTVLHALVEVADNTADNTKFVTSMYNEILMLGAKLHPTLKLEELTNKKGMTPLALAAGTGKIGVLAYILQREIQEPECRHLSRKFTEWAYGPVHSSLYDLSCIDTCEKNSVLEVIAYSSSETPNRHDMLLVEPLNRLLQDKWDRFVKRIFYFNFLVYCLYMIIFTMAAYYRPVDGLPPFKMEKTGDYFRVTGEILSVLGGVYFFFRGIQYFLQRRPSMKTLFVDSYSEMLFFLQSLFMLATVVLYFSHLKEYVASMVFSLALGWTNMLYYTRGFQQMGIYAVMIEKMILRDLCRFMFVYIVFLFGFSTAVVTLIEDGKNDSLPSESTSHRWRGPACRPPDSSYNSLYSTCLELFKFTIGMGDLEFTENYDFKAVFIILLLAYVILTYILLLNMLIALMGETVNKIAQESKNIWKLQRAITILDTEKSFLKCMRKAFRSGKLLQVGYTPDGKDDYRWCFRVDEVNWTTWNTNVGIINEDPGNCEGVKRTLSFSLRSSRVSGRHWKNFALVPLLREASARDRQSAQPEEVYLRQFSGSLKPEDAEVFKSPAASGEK

SMILES: NS(=O)(=O)c1ccccc1-c1ccc2[nH]c(COc3ccc(S(=O)(=O)C(F)(F)F)cc3)nc2c1 [Cpd 2, 2-[2-(4-trifluoromethanesulfonyl-phenoxymethyl)-1H-benzoimidazol-5-yl]-benzenesulfonamide]
- IC50 (hTRPV1): 10 nM
- inhibition at 0.5 µM (hTRPV1): 99%
- inhibition in vivo at 10 mg/kg (male Sprague-Dawley rats): 80%

SMILES: NS(=O)(=O)c1ccccc1-c1ccc2[nH]c(COc3ccc(OC(F)(F)F)cc3)nc2c1 [Cpd 16, 2-[2-(4-trifluoromethoxy-phenoxymethyl)-1H-benzoimidazol-5-yl]-benzenesulfonamide]
- IC50 (hTRPV1): 10 nM
- inhibition at 0.5 µM (hTRPV1): 99%
- inhibition in vivo at 10 mg/kg (male Sprague-Dawley rats): 70%

SMILES: CNS(=O)(=O)c1ccccc1-c1ccc2[nH]c(COc3ccc(C(F)(F)F)cc3)nc2c1 [Cpd 17, N-methyl-2-[2-(4-trifluoromethyl-phenoxymethyl)-1H-benzoimidazol-5-yl]-benzenesulfonamide]
- IC50 (hTRPV1): 1 nM
- inhibition at 0.5 µM (hTRPV1): 100%
- inhibition in vivo at 10 mg/kg (male Sprague-Dawley rats): 100%

SMILES: CC(C)(O)c1ccccc1-c1ccc2[nH]c(COc3ccc(C(F)(F)F)cc3)nc2c1 [Cpd 21, 2-{2-[2-(4-trifluoromethyl-phenoxymethyl)-1H-benzoimidazol-5-yl]-phenyl}-propan-2-ol]
- IC50 (hTRPV1): 14 nM
- inhibition at 0.5 µM (hTRPV1): 99%
- inhibition in vivo at 10 mg/kg (male Sprague-Dawley rats): 100%

SMILES: CS(=O)(=O)c1ccccc1-c1ccc2[nH]c(COc3ccc(S(=O)(=O)C(F)(F)F)cc3)nc2c1 [Cpd 86, 5-(2-methanesulfonyl-phenyl)-2-(4-trifluoromethanesulfonyl-phenoxymethyl)-1H-benzoimidazole]
- IC50 (hTRPV1): 4.9 nM
- inhibition at 0.2 µM (hTRPV1): 97%
- inhibition in vivo at 10 mg/kg (male Sprague-Dawley rats): 100%

SMILES: CS(=O)(=O)c1ccccc1-c1ccc2[nH]c(COc3ccc(C(F)(F)F)cc3)nc2c1 [Cpd 98, 5-(2-methanesulfonyl-phenyl)-2-(4-trifluoromethyl-phenoxymethyl)-1H-benzoimidazole]
- IC50 (hTRPV1): 2.1 nM
- inhibition at 0.5 µM (hTRPV1): 94%
- inhibition in vivo at 10 mg/kg (male Sprague-Dawley rats): 30%

SMILES: CS(=O)(=O)Nc1ccccc1-c1ccc2[nH]c(COc3ccc(C(F)(F)F)cc3)nc2c1 [Cpd 101, N-{2-[2-(4-trifluoromethyl-phenoxymethyl)-1H-benzoimidazol-5-yl]-phenyl}-methanesulfonamide]
- IC50 (hTRPV1): 10 nM
- inhibition at 0.5 µM (hTRPV1): 94%
- inhibition in vivo at 10 mg/kg (male Sprague-Dawley rats): 22%

SMILES: OCC(O)c1ccccc1-c1ccc2[nH]c(COc3ccc(C(F)(F)F)cc3)nc2c1 (centres unmarked) [Cpd 150, 1-{2-[2-(4-trifluoromethyl-phenoxymethyl)-1H-benzoimidazol-5-yl]-phenyl}-ethane-1,2-diol]
- IC50 (hTRPV1): 16 nM
- inhibition at 0.2 µM (hTRPV1): 99%

SMILES: O=C(CO)c1ccccc1-c1ccc2[nH]c(COc3ccc(C(F)(F)F)cc3)nc2c1 [Cpd 151, 2-hydroxy-1-{2-[2-(4-trifluoromethyl-phenoxymethyl)-1H-benzoimidazol-5-yl]-phenyl}-ethanone]
- inhibition at 0.2 µM (hTRPV1): 33%

SMILES: O=C(NCCO)c1ccccc1-c1ccc2[nH]c(COc3ccc(C(F)(F)F)cc3)nc2c1 [Cpd 152, N-(2-hydroxy-ethyl)-2-[2-(4-trifluoromethyl-phenoxymethyl)-1H-benzoimidazol-5-yl]-benzamide]
- inhibition at 0.2 µM (hTRPV1): 38%

SMILES: CC(C)(O)CNC(=O)c1ccccc1-c1ccc2[nH]c(COc3ccc(C(F)(F)F)cc3)nc2c1 [Cpd 153, N-(2-hydroxy-2-methyl-propyl)-2-[2-(4-trifluoromethyl-phenoxymethyl)-1H-benzoimidazol-5-yl]-benzamide]
- inhibition at 0.2 µM (hTRPV1): 31%

The remaining lines, values ahead:

- inhibition at 0.2 µM (hTRPV1): 68%
SMILES: CC(O)CNC(=O)c1ccccc1-c1ccc2[nH]c(COc3ccc(C(F)(F)F)cc3)nc2c1 (centres unmarked) [Cpd 154, N-(2-hydroxy-propyl)-2-[2-(4-trifluoromethyl-phenoxymethyl)-1H-benzoimidazol-5-yl]-benzamide]

- inhibition at 0.2 µM (hTRPV1): 21%
SMILES: CN(CCO)C(=O)c1ccccc1-c1ccc2[nH]c(COc3ccc(C(F)(F)F)cc3)nc2c1 [Cpd 155, N-(2-hydroxy-ethyl)-N-methyl-2-[2-(4-trifluoromethyl-phenoxymethyl)-1H-benzoimidazol-5-yl]-benzamide]

- IC50 (hTRPV1): 78 nM
- inhibition at 0.2 µM (hTRPV1): 76%
SMILES: CC(Oc1ccc(C(F)(F)F)cc1)c1nc2cc(-c3ccccc3S(N)(=O)=O)ccc2[nH]1 (centres unmarked) [Cpd 156, 2-{2-[1-(4-trifluoromethyl-phenoxy)-ethyl]-1H-benzoimidazol-5-yl}-benzenesulfonamide]

- inhibition at 0.2 µM (hTRPV1): 20%
SMILES: CCC(Oc1ccc(C(F)(F)F)cc1)c1nc2cc(-c3ccccc3S(N)(=O)=O)ccc2[nH]1 (centres unmarked) [Cpd 157, 2-{2-[1-(4-trifluoromethyl-phenoxy)-propyl]-1H-benzoimidazol-5-yl}-benzenesulfonamide]

- inhibition at 0.2 µM (hTRPV1): 13%
SMILES: O=S(=O)(c1ccccc1-c1ccc2[nH]c(COc3ccc(C(F)(F)F)cc3)nc2c1)C(F)(F)F [Cpd 158, 5-(2-trifluoromethanesulfonyl-phenyl)-2-(4-trifluoromethyl-phenoxymethyl)-1H-benzoimidazole]

- IC50 (hTRPV1): 22 nM
- inhibition at 0.2 µM (hTRPV1): 90%
SMILES: CC(C)(O)CS(=O)(=O)c1ccccc1-c1ccc2[nH]c(COc3ccc(C(F)(F)F)cc3)nc2c1 [Cpd 159, 2-methyl-1-{2-[2-(4-trifluoromethyl-phenoxymethyl)-1H-benzoimidazol-5-yl]-benzenesulfonyl}-propan-2-ol]

- IC50 (hTRPV1): 12.5 nM
- inhibition at 0.2 µM (hTRPV1): 90%
SMILES: CC(O)CS(=O)(=O)c1ccccc1-c1ccc2[nH]c(COc3ccc(C(F)(F)F)cc3)nc2c1 (centres unmarked) [Cpd 160, 1-{2-[2-(4-trifluoromethyl-phenoxymethyl)-1H-benzoimidazol-5-yl]-benzenesulfonyl}-propan-2-ol]

- inhibition at 0.2 µM (hTRPV1): 63%
SMILES: O=S(=O)(CCO)c1ccccc1-c1ccc2[nH]c(COc3ccc(S(=O)(=O)C(F)(F)F)cc3)nc2c1 [Cpd 161, 2-{2-[2-(4-trifluoromethanesulfonyl-phenoxymethyl)-1H-benzoimidazol-5-yl]-benzenesulfonyl}-ethanol]

- inhibition at 0.2 µM (hTRPV1): 4%
SMILES: CS(=O)(=O)c1ccc(OCc2nc3cc(-c4ccccc4S(=O)(=O)CCO)ccc3[nH]2)cc1 [Cpd 162, 2-{2-[2-(4-methanesulfonyl-phenoxymethyl)-1H-benzoimidazol-5-yl]-benzenesulfonyl}-ethanol]

- IC50 (hTRPV1): 3 nM
- inhibition at 0.2 µM (hTRPV1): 98%
SMILES: CC(C)(O)c1ccccc1-c1ccc2[nH]c(COc3ccc(C4CC4)cc3)nc2c1 [Cpd 163, 2-{2-[2-(4-cyclopropyl-phenoxymethyl)-1H-benzoimidazol-5-yl]-phenyl}-propan-2-ol]

- IC50 (hTRPV1): 25 nM
- inhibition at 0.2 µM (hTRPV1): 97%
SMILES: NS(=O)(=O)c1ccccc1-c1ccc2[nH]c(COc3ccc(C4CC4)cc3)nc2c1 [Cpd 164, 2-[2-(4-cyclopropyl-phenoxymethyl)-1H-benzoimidazol-5-yl]-benzenesulfonamide]

- IC50 (hTRPV1): 6 nM
- inhibition at 0.2 µM (hTRPV1): 98%
SMILES: CNS(=O)(=O)c1ccccc1-c1ccc2[nH]c(COc3ccc(C4CC4)cc3)nc2c1 [Cpd 165, 2-[2-(4-cyclopropyl-phenoxymethyl)-1H-benzoimidazol-5-yl]-N-methyl-benzenesulfonamide]

- IC50 (hTRPV1): 7 nM
- inhibition at 0.2 µM (hTRPV1): 98%
SMILES: CN(C)S(=O)(=O)c1ccccc1-c1ccc2[nH]c(COc3ccc(C4CC4)cc3)nc2c1 [Cpd 166, 2-[2-(4-cyclopropyl-phenoxymethyl)-1H-benzoimidazol-5-yl]-N,N-dimethyl-benzenesulfonamide]

- IC50 (hTRPV1): 7 nM
- inhibition at 0.2 µM (hTRPV1): 98%
SMILES: CS(=O)(=O)c1ccccc1-c1ccc2[nH]c(COc3ccc(C4CC4)cc3)nc2c1 [Cpd 167, 2-(4-cyclopropyl-phenoxymethyl)-5-(2-methanesulfonyl-phenyl)-1H-benzoimidazole]

- IC50 (hTRPV1): 24 nM
- inhibition at 0.2 µM (hTRPV1): 97%
SMILES: CS(=O)(=O)Nc1ccccc1-c1ccc2[nH]c(COc3ccc(C4CC4)cc3)nc2c1 [Cpd 168, N-{2-[2-(4-cyclopropyl-phenoxymethyl)-1H-benzoimidazol-5-yl]-phenyl}-methanesulfonamide]
